Measured values reported in patent publication US20240299328A1, “COMPOSITIONS COMPRISING 15-HEPE AND METHODS OF TREATING AND/OR PREVENTING HEMATOLOGIC DISORDERS AND RELATED DISEASES” (Afimmune Limited, priority 2023, published 2024).

Tests used:
[1] = 0.5% HPMC vehicle; same preparation and storage conditions; concentrations bracketing those used; cited from earlier work
NAFLD patients = assay: Phase IIa NAFLD study: OWL liver care diagnostic test; format: in vivo, human; conditions: for Change in Diagnosis (Week 16 vs. baseline): Improvement / Change in Diagnosis (Week 16 vs. baseline): Stable / Change in Diagnosis (Week 16 vs. baseline): Worsening: number of patients
Text: OWL Liver Care is a test that was developed based on the plasma lipidomics in biopsy-confirmed NASH patients and provides high predictive values. OWL Liver Care has an area under the curve (AUC) of 0.88 for distinguishing NAFLD and normal liver patients and an AUC of 0.79 for distinguishing NAFLD without steatohepatitis and NASH patients.

[2] = test system: humanized sickle cell (SS) mice exposed to H/R stress; assay: Humanized SCD (SS) mice exposed to hypoxia/reoxygenation (H/R) stress: blood, flow cytometry, immunoblot; format: in vivo
Protocol: Animals and design of the study: Experiments were performed on 4-5 months-old sex matched healthy control (Hba^tm1(HBA) Tow Hbb^tm3(HBG1, HBB) Tow) and SCD (Hba^tm1(HBA)Tow Hbb^tm2(HBG1.HBB*)Tow) mice. The study used 4-5 months-old mice. The sickle cell related organ damage is not so severe to generate confounding factors when the impact of H/R induced stress is evaluated. This is also corroborated by the observation of Kasztan M et al who show gender-related differences in kidney function of humanized SCD mice becoming significant after 24 weeks (6 months) of age. The size of the mouse groups was established based on studies with the same mouse model for SCD generated by us and other labs. Mice were randomly assigned to the different treatment groups and analysis. Healthy and SS mice were treated with ether vehicle (hydroxypropyl methyl cellulose, HPMC, 0.5%) or Epeleuton in HPMC 0.5% (1000 mg/kg/day) administrated by gavage for 6 weeks. […] When indicated, mice underwent a hypoxia/reoxygenation stress (H/R): 10 hours hypoxia (8% oxygen) followed by 3 hours reoxygenation (21% oxygen) to mimic acute vaso-occlusive crisis as previously described. Whole blood and organs were collected from each mouse under isoflurane anesthesia. Organs were immediately removed and divided into two portions which were either immediately frozen in liquid nitrogen or fixed in 10% formalin and embedded in paraffin for histology. Hematological parameters were evaluated with a Sysmex XN-1000 Hematology Analyzer and red cell morphology was evaluated as previously reported. Biochemical assays were performed using standard biochemical assays, as previously reported. Plasmatic Pentraxin 2 and CCL-2 and CXCL-2 were measured respectively using the Mouse Pentraxin 2/SAP Quantikine ELISA Kit and the next generation ELISA kit according to the manufacturer's instruction.
Immunoblot analysis: Packed red cells were lysed in ice-cold phosphate lysis buffer (5 mM Na2HPO4, pH 8.0, containing protease inhibitor cocktail tablets, 3 mM benzamidine final concentration, 1 mM Na3VO4 final concentration) and centrifuged 10 min at 4° C. at 12,000 g. Red cell membrane (ghost) and cytosol fractions were obtained as previously reported. Frozen lung, kidney and aorta from each studied group were homogenized and lysed with iced lyses buffer (150 mM NaCl, 25 mM bicine, 0.1% SDS, 2% Triton X-100, 1 mM EDTA, protease inhibitor cocktail tablets, 1 mM Na3VO4 final concentration) then centrifuged 30 min at 4° C. at 12,000 g. Specific antibodies used are: anti Phospho-Tyrosine (clone PY99 from SCBT, Santa Cruz, CA (dilution 1:3000, 75 μg loaded) and clone 4G10 from Merck KGaA, Darmstadt, Germany (dilution 1:1600, 75 μgr loaded)); anti Phospho (Ser536) NF-kB p65 (dilution 1:1000, 75 μg loaded) and anti NF-kB p65 (clone C22B4) (dilution 1:1000, 75 μgr loaded) from Cell Signaling Technology (Danvers, MA, USA); anti-NLRP3/NALP3 from Vinci-Biochem Srl, Vinci, Italy (dilution 1:1000, 75 μgr loaded); anti Endothelin-1 (ET-1) form AbCam, Cambridge, UK (dilution 1:1000, 75 μgr loaded); anti VCAM-1 (R and D Systems, Minneapolis, MN, USA (dilution 1:1000, 40 μgr loaded)); anti ICAM-1 (clone EP1442Y, dilution 1:1000, 75 μgr loaded, AbCam, Cambridge, UK); anti TXAS-1 (Cayman, Ann Arbor, MI, USA); anti Nrf2-phospho-S40 (Clone EP1809Y, dilution 1:1000, 75 μgr loaded, AbCam, Cambridge, UK); anti-Nrf2 (dilution 1:1000, 75 μgr loaded, AbCam, Cambridge, UK); anti Nqo1 from Santa Cruz Biotechnology, Inc, CA, USA (clone C-19; dilution 1:1000, 75 μgr/μl loaded); anti-heme oxygenase 1(HO-1) form SCBT (Santa Cruz, CA, USA (dilution 1:1000, 50 μgr loaded); E-selectin (H-300) (dilution 1:1000, 75 μgr loaded); anti GAPDH from SCBT (Santa Cruz, CA, USA (dilution 1:5000, 50 μgr loaded)); anti Actin from SCBT (Santa Cruz, CA, USA (clone 2A3, dilution 1:1000, 50 μgr/loaded)). […]

[3] = 1 g DS102 arm, OWL baseline diagnosis NASH
[4] = 1 g DS102 arm, OWL baseline diagnosis No NAFLD
[5] = 1 g DS102 arm, OWL baseline diagnosis Steatosis
[6] = 2 g DS102 arm, OWL baseline diagnosis NASH
[7] = 2 g DS102 arm, OWL baseline diagnosis No NAFLD
[8] = 2 g DS102 arm, OWL baseline diagnosis Steatosis
[9] = H/R, 1000 mg/Kg/d for 6 weeks, vs vehicle
[10] = H/R, 1000 mg/Kg/day for 6 weeks

CC/C=C\C[C@H](O)/C=C/C=C\C/C=C\C/C=C\CCCC(=O)OCC [DS102, 15(S)-hydroxy-(5Z,8Z,11Z,13E,17Z)-eicosapentaenoic acid ethyl ester]
stability of the test item in the vehicle [1]: stable
Change in Diagnosis (Week 16 vs. baseline): Improvement (NAFLD patients; [3]): 5
Change in Diagnosis (Week 16 vs. baseline): Stable (NAFLD patients; [3]): 14
Change in Diagnosis (Week 16 vs. baseline): Stable (NAFLD patients; [4]): 3
Change in Diagnosis (Week 16 vs. baseline): Worsening (NAFLD patients; [4]): 1
Change in Diagnosis (Week 16 vs. baseline): Stable (NAFLD patients; [5]): 2
Change in Diagnosis (Week 16 vs. baseline): Worsening (NAFLD patients; [5]): 3
Change in Diagnosis (Week 16 vs. baseline): Improvement (NAFLD patients; [6]): 5
Change in Diagnosis (Week 16 vs. baseline): Stable (NAFLD patients; [6]): 7
Change in Diagnosis (Week 16 vs. baseline): Stable (NAFLD patients; [7]): 2*, **
Change in Diagnosis (Week 16 vs. baseline): Worsening (NAFLD patients; [7]): 1
Change in Diagnosis (Week 16 vs. baseline): Improvement (NAFLD patients; [8]): 1
Change in Diagnosis (Week 16 vs. baseline): Stable (NAFLD patients; [8]): 9
Change in Diagnosis (Week 16 vs. baseline): Worsening (NAFLD patients; [8]): 4
OWL liver care diagnosed NASH (NAFLD patients; NAFLD patients, dose dependent, vs placebo at Week 16): significantly improved and normalized
spleen macrophage classic inflammatory markers (CD80, CD68) ([2]; 1000 mg/Kg/day for 6 weeks, vs vehicle): significant reduction
H/R induced increase in NLRP3, VCAM-1, ET-1 and TXAS-1 expression in kidney ([2]; H/R, 1000 mg/Kg/d for 6 weeks): reduction
NLRP3 inflammasome in lung tissue ([2]; H/R, 1000 mg/Kg/d for 6 weeks): downregulation
VCAM-1 in livers ([2]; H/R, 1000 mg/Kg/d for 6 weeks): prevented the H/R induced up-regulation
activation of NF-kB p65 and Nrf2 in liver ([2]; H/R, 1000 mg/Kg/d for 6 weeks): reduced activation
active forms of NF-kB p65 induced by H/R in lung ([2]; H/R, 1000 mg/Kg/d for 6 weeks): significant decrease
antioxidants NQO1 and HO-1 in liver ([2]; H/R, 1000 mg/Kg/d for 6 weeks): downregulation
expression of NLRP3 in livers ([2]; H/R, 1000 mg/Kg/d for 6 weeks): lower expression
liver protein oxidation ([2]; H/R, 1000 mg/Kg/d for 6 weeks): marked reduction
ET-1 in livers [2, 9]: trend towards reduction
H/R induced activation of NF-kB p65 in kidneys [2, 9]: decreased
H/R induced expression of VCAM-1 in isolated aorta [2, 9]: significant reduction
H/R-induced increases in creatinine and BUN plasma values [2, 9]: reduction
leukocyte infiltrates in kidneys (flow cytometry) [2, 9]: significant reduction
H/R-induced increase in neutrophil counts [2, 10]: significantly reduced
amount of sickled red blood cells [2, 10]: decreased
hematocrit (Hct) and hemoglobin (Hb) [2, 10]: prevented the H/R induced reduction
plasma C reactive protein (CRP) and pentraxin-2 [2, 10]: decreased
spleen neutrophils ([2]; H/R, 1000 mg/Kg/day for 6 weeks, vs vehicle): significant decrease
lactate dehydrogenase (LDH) ([2]; H/R, plasma, 1000 mg/Kg/day for 6 weeks): reduction
tyrosine phosphorylation state of band 3 ([2]; H/R, red cell membrane, 1000 mg/Kg/day for 6 weeks): reduction
clearance of damaged RBCs ([2]; spleen macrophages, 1000 mg/Kg/day for 6 weeks, vs vehicle): trend towards reduction
